In US20230085307A1, “PYRIDAZINONE COMPOUND AND HERBICIDE” (NISSAN CHEMICAL CORPORATION, priority 2019, published 2023):

These compounds were tested on Japanese bulrush (assay: Test Example 1: herbicidal activity, application before weed generation under submerged conditions (Table 16, symbol B)). Conditions: 266 g/ha applied herbicide.
Assay type: in vivo, Japanese bulrush (Schoenoplectus juncoides)
Outline: (§1)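 Submerged Wagner pots (alluvial soil, 4 cm water) sown with weed seeds and planted with 2.5-leaf rice seedlings; emulsifiable concentrate diluted in water applied to water surface on sowing day. Held in greenhouse at 25-30 °C; injury scored 0-5 by herbicidal rate after three weeks.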

SMILES | Herbicidal effect on B: Japanese bulrush (grade 0-5)
CCCC(=O)Oc1c(C)nn(C)c(=O)c1-c1c(-c2ccccc2OCC)sc2ccc(F)cc12 [2-029] | 0 (Herbicidal rate of 5% or less (almost no effect))

Same assay, conditions: 320 g/ha applied herbicide

SMILES | Herbicidal effect on B: Japanese bulrush (grade 0-5)
CCCOc1ccc(-c2sc3ccc(F)cc3c2-c2c(O)c(C)nn(C)c2=O)cc1 [2-032] | 4 (Herbicidal rate of 70% or more and less than 90%)
Cc1nn(C)c(=O)c(-c2c(-c3ccc(OC(C)C)cc3)sc3ccc(F)cc23)c1O [2-034] | 4 (Herbicidal rate of 70% or more and less than 90%)

Each compound was assayed on oval-leafed pondweed (assay: Test Example 1: herbicidal activity, application before weed generation under submerged conditions (Table 16, symbol C)). Conditions: 266 g/ha applied herbicide.
Assay type: in vivo, oval-leafed pondweed (Monochoria vaginalis)
Outline: as §1

SMILES | Herbicidal effect on C: oval-leafed pondweed (grade 0-5)
CCCC(=O)Oc1c(C)nn(C)c(=O)c1-c1c(-c2ccccc2OCC)sc2ccc(F)cc12 [2-029] | 0 (Herbicidal rate of 5% or less (almost no effect))

Same assay, conditions: 320 g/ha applied herbicide

SMILES | Herbicidal effect on C: oval-leafed pondweed (grade 0-5)
CCCOc1ccc(-c2sc3ccc(F)cc3c2-c2c(O)c(C)nn(C)c2=O)cc1 [2-032] | 4 (Herbicidal rate of 70% or more and less than 90%)
Cc1nn(C)c(=O)c(-c2c(-c3ccc(OC(C)C)cc3)sc3ccc(F)cc23)c1O [2-034] | 2 (Herbicidal rate of 20% or more and less than 40%)

These compounds were tested on Japanese bulrush (assay: Test Example 2: herbicidal activity, application during weed generation under submerged conditions (Table 17, symbol B)). Conditions: AAH 266 g/ha; application during weed generation, submerged conditions.
Assay type: in vivo, Japanese bulrush (Schoenoplectus juncoides)
Outline: (§2)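 Herbicide emulsion, diluted with water to the chosen amount, is applied onto 4 cm floodwater over alluvial soil where the weeds were co-sown and raised at 25–30° C. Application timing: 1–2 leaves. Assessment: three weeks afterwards.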

SMILES | herbicidal effect rating, B: Japanese bulrush
CCCC(=O)Oc1c(C)nn(C)c(=O)c1-c1c(-c2ccccc2OCC)sc2ccc(F)cc12 [2-029] | 2 (Herbicidal rate of 20% or more and less than 40%)

Same assay, conditions: AAH 320 g/ha; application during weed generation, submerged conditions

SMILES | herbicidal effect rating, B: Japanese bulrush
CCCOc1ccc(-c2sc3ccc(F)cc3c2-c2c(O)c(C)nn(C)c2=O)cc1 [2-032] | 4 (Herbicidal rate of 70% or more and less than 90%)
Cc1nn(C)c(=O)c(-c2c(-c3ccc(OC(C)C)cc3)sc3ccc(F)cc23)c1O [2-034] | 3 (Herbicidal rate of 40% or more and less than 70%)

Each compound was assayed on oval-leafed pondweed (assay: Test Example 2: herbicidal activity, application during weed generation under submerged conditions (Table 17, symbol C)). Conditions: AAH 266 g/ha; application during weed generation, submerged conditions.
Assay type: in vivo, oval-leafed pondweed (Monochoria vaginalis)
Outline: as §2

SMILES | herbicidal effect rating, C: oval-leafed pondweed
CCCC(=O)Oc1c(C)nn(C)c(=O)c1-c1c(-c2ccccc2OCC)sc2ccc(F)cc12 [2-029] | 3 (Herbicidal rate of 40% or more and less than 70%)

Same assay, conditions: AAH 320 g/ha; application during weed generation, submerged conditions

SMILES | herbicidal effect rating, C: oval-leafed pondweed
CCCOc1ccc(-c2sc3ccc(F)cc3c2-c2c(O)c(C)nn(C)c2=O)cc1 [2-032] | 5 (Herbicidal rate of 90% or more (almost completely withered))
Cc1nn(C)c(=O)c(-c2c(-c3ccc(OC(C)C)cc3)sc3ccc(F)cc23)c1O [2-034] | 3 (Herbicidal rate of 40% or more and less than 70%)

These compounds were tested on green foxtail (assay: Test Example 4: herbicidal effect by soil treatment (Table 19, symbol G)). Conditions: 266 g/ha.
Assay type: in vivo, green foxtail (Setaria viridis)
Outline: (§3)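 Applied as a water-diluted emulsion, the compound was sprayed onto soil covering newly sown seeds. Evaluation came three weeks after application, in a greenhouse held at 25° C. to 30° C.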

SMILES | herbicidal effect rating, G: green foxtail
CCCC(=O)Oc1c(C)nn(C)c(=O)c1-c1c(-c2ccccc2OCC)sc2ccc(F)cc12 [2-029] | 3 (Herbicidal rate of 40% or more and less than 70%)

Same assay, conditions: 320 g/ha

SMILES | herbicidal effect rating, G: green foxtail
CCCOc1ccc(-c2sc3ccc(F)cc3c2-c2c(O)c(C)nn(C)c2=O)cc1 [2-032] | 3 (Herbicidal rate of 40% or more and less than 70%)
Cc1nn(C)c(=O)c(-c2c(-c3ccc(OC(C)C)cc3)sc3ccc(F)cc23)c1O [2-034] | 4 (Herbicidal rate of 70% or more and less than 90%)

Each compound was assayed on barnyard grass (assay: Test Example 4: herbicidal effect by soil treatment (Table 19, symbol H)). Conditions: 266 g/ha.
Assay type: in vivo, barnyard grass (Echinochloa crus-galli)
Outline: as §3

SMILES | herbicidal effect rating, H: barnyard grass
CCCC(=O)Oc1c(C)nn(C)c(=O)c1-c1c(-c2ccccc2OCC)sc2ccc(F)cc12 [2-029] | 3 (Herbicidal rate of 40% or more and less than 70%)

Same assay, conditions: 320 g/ha

SMILES | herbicidal effect rating, H: barnyard grass
CCCOc1ccc(-c2sc3ccc(F)cc3c2-c2c(O)c(C)nn(C)c2=O)cc1 [2-032] | 2 (Herbicidal rate of 20% or more and less than 40%)
Cc1nn(C)c(=O)c(-c2c(-c3ccc(OC(C)C)cc3)sc3ccc(F)cc23)c1O [2-034] | 2 (Herbicidal rate of 20% or more and less than 40%)

Each compound was assayed on wild oat (assay: Test Example 4: herbicidal effect by soil treatment (Table 19, symbol I)). Conditions: 266 g/ha.
Assay type: in vivo, wild oat (Avena fatua)
Outline: as §3

SMILES | herbicidal effect rating, I: wild oat
CCCC(=O)Oc1c(C)nn(C)c(=O)c1-c1c(-c2ccccc2OCC)sc2ccc(F)cc12 [2-029] | 3 (Herbicidal rate of 40% or more and less than 70%)

Same assay, conditions: 320 g/ha

SMILES | herbicidal effect rating, I: wild oat
CCCOc1ccc(-c2sc3ccc(F)cc3c2-c2c(O)c(C)nn(C)c2=O)cc1 [2-032] | 0 (Herbicidal rate of 5% or less (almost no effect))
Cc1nn(C)c(=O)c(-c2c(-c3ccc(OC(C)C)cc3)sc3ccc(F)cc23)c1O [2-034] | 0 (Herbicidal rate of 5% or less (almost no effect))

What follows are compounds tested on redroot pigweed (assay: Test Example 4: herbicidal effect by soil treatment (Table 19, symbol N)). Conditions: 266 g/ha.
Assay type: in vivo, redroot pigweed (Amaranthus retroflexus)
Outline: as §3

SMILES | herbicidal effect rating, N: redroot pigweed
CCCC(=O)Oc1c(C)nn(C)c(=O)c1-c1c(-c2ccccc2OCC)sc2ccc(F)cc12 [2-029] | 4 (Herbicidal rate of 70% or more and less than 90%)

Same assay, conditions: 320 g/ha

SMILES | herbicidal effect rating, N: redroot pigweed
CCCOc1ccc(-c2sc3ccc(F)cc3c2-c2c(O)c(C)nn(C)c2=O)cc1 [2-032] | 5 (Herbicidal rate of 90% or more (almost completely withered))
Cc1nn(C)c(=O)c(-c2c(-c3ccc(OC(C)C)cc3)sc3ccc(F)cc23)c1O [2-034] | 5 (Herbicidal rate of 90% or more (almost completely withered))

These compounds were tested on chickweed (assay: Test Example 4: herbicidal effect by soil treatment (Table 19, symbol P)). Conditions: 266 g/ha.
Assay type: in vivo, common chickweed (Stellaria media)
Outline: as §3

SMILES | herbicidal effect rating, P: chickweed
CCCC(=O)Oc1c(C)nn(C)c(=O)c1-c1c(-c2ccccc2OCC)sc2ccc(F)cc12 [2-029] | 3 (Herbicidal rate of 40% or more and less than 70%)

Same assay, conditions: 320 g/ha

SMILES | herbicidal effect rating, P: chickweed
CCCOc1ccc(-c2sc3ccc(F)cc3c2-c2c(O)c(C)nn(C)c2=O)cc1 [2-032] | 4 (Herbicidal rate of 70% or more and less than 90%)
Cc1nn(C)c(=O)c(-c2c(-c3ccc(OC(C)C)cc3)sc3ccc(F)cc23)c1O [2-034] | 4 (Herbicidal rate of 70% or more and less than 90%)

The compounds below were run on southern crabgrass (assay: Test Example 5: herbicidal effect by foliage application, plastic box (Table 20, symbol F)). Conditions: foliage application, 266 g/ha, 3 weeks after application.
Assay type: in vivo, southern crabgrass (Digitaria ciliaris)
Outline: (§4)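 Sow seeds spot-wise in sterilized diluvial soil; cover with ~1.5 cm soil. Grow 14 days in greenhouse, 25° C. to 30° C. Spray foliage with emulsion diluted to predetermined amount. Rate effect after 3 weeks.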

SMILES | effect on southern crabgrass (F)
CCCC(=O)Oc1c(C)nn(C)c(=O)c1-c1c(-c2ccccc2OCC)sc2ccc(F)cc12 [2-029] | 4 (Herbicidal rate of 70% or more and less than 90%)

Same assay, conditions: foliage application, 320 g/ha, 3 weeks after application

SMILES | effect on southern crabgrass (F)
CCCOc1ccc(-c2sc3ccc(F)cc3c2-c2c(O)c(C)nn(C)c2=O)cc1 [2-032] | 5 (Herbicidal rate of 90% or more (almost completely withered))
Cc1nn(C)c(=O)c(-c2c(-c3ccc(OC(C)C)cc3)sc3ccc(F)cc23)c1O [2-034] | 5 (Herbicidal rate of 90% or more (almost completely withered))

What follows are compounds tested on green foxtail (assay: Test Example 5: herbicidal effect by foliage application, plastic box (Table 20, symbol G)). Conditions: foliage application, 266 g/ha, 3 weeks after application.
Assay type: in vivo, green foxtail (Setaria viridis)
Outline: as §4

SMILES | effect on green foxtail (G)
CCCC(=O)Oc1c(C)nn(C)c(=O)c1-c1c(-c2ccccc2OCC)sc2ccc(F)cc12 [2-029] | 4 (Herbicidal rate of 70% or more and less than 90%)

Same assay, conditions: foliage application, 320 g/ha, 3 weeks after application

SMILES | effect on green foxtail (G)
CCCOc1ccc(-c2sc3ccc(F)cc3c2-c2c(O)c(C)nn(C)c2=O)cc1 [2-032] | 5 (Herbicidal rate of 90% or more (almost completely withered))
Cc1nn(C)c(=O)c(-c2c(-c3ccc(OC(C)C)cc3)sc3ccc(F)cc23)c1O [2-034] | 5 (Herbicidal rate of 90% or more (almost completely withered))

The compounds below were run on barnyard grass (assay: Test Example 5: herbicidal effect by foliage application, plastic box (Table 20, symbol H)). Conditions: foliage application, 266 g/ha, 3 weeks after application.
Assay type: in vivo, barnyard grass (Echinochloa crus-galli)
Outline: as §4

SMILES | effect on barnyard grass (H)
CCCC(=O)Oc1c(C)nn(C)c(=O)c1-c1c(-c2ccccc2OCC)sc2ccc(F)cc12 [2-029] | 5 (Herbicidal rate of 90% or more (almost completely withered))

Same assay, conditions: foliage application, 320 g/ha, 3 weeks after application

SMILES | effect on barnyard grass (H)
CCCOc1ccc(-c2sc3ccc(F)cc3c2-c2c(O)c(C)nn(C)c2=O)cc1 [2-032] | 5 (Herbicidal rate of 90% or more (almost completely withered))
Cc1nn(C)c(=O)c(-c2c(-c3ccc(OC(C)C)cc3)sc3ccc(F)cc23)c1O [2-034] | 5 (Herbicidal rate of 90% or more (almost completely withered))

Each compound was assayed on wild oat (assay: Test Example 5: herbicidal effect by foliage application, plastic box (Table 20, symbol I)). Conditions: foliage application, 266 g/ha, 3 weeks after application.
Assay type: in vivo, wild oat (Avena fatua)
Outline: as §4

SMILES | effect on wild oat (I)
CCCC(=O)Oc1c(C)nn(C)c(=O)c1-c1c(-c2ccccc2OCC)sc2ccc(F)cc12 [2-029] | 3 (Herbicidal rate of 40% or more and less than 70%)

Same assay, conditions: foliage application, 320 g/ha, 3 weeks after application

SMILES | effect on wild oat (I)
CCCOc1ccc(-c2sc3ccc(F)cc3c2-c2c(O)c(C)nn(C)c2=O)cc1 [2-032] | 3 (Herbicidal rate of 40% or more and less than 70%)
Cc1nn(C)c(=O)c(-c2c(-c3ccc(OC(C)C)cc3)sc3ccc(F)cc23)c1O [2-034] | 3 (Herbicidal rate of 40% or more and less than 70%)

Each compound was assayed on windgrass (assay: Test Example 5: herbicidal effect by foliage application, plastic box (Table 20, symbol L)). Conditions: foliage application, 266 g/ha, 3 weeks after application.
Assay type: in vivo, windgrass (Apera spica-venti)
Outline: as §4

SMILES | effect on windgrass (L)
CCCC(=O)Oc1c(C)nn(C)c(=O)c1-c1c(-c2ccccc2OCC)sc2ccc(F)cc12 [2-029] | 1 (Herbicidal rate of 5% or more and less than 20%)

Same assay, conditions: foliage application, 320 g/ha, 3 weeks after application

SMILES | effect on windgrass (L)
CCCOc1ccc(-c2sc3ccc(F)cc3c2-c2c(O)c(C)nn(C)c2=O)cc1 [2-032] | 4 (Herbicidal rate of 70% or more and less than 90%)
Cc1nn(C)c(=O)c(-c2c(-c3ccc(OC(C)C)cc3)sc3ccc(F)cc23)c1O [2-034] | 4 (Herbicidal rate of 70% or more and less than 90%)

What follows are compounds tested on persian speedwell (assay: Test Example 5: herbicidal effect by foliage application, plastic box (Table 20, symbol R)). Conditions: foliage application, 266 g/ha, 3 weeks after application.
Assay type: in vivo, Persian speedwell (Veronica persica)
Outline: as §4

SMILES | effect on persian speedwell (R)
CCCC(=O)Oc1c(C)nn(C)c(=O)c1-c1c(-c2ccccc2OCC)sc2ccc(F)cc12 [2-029] | 5 (Herbicidal rate of 90% or more (almost completely withered))

Same assay, conditions: foliage application, 320 g/ha, 3 weeks after application

SMILES | effect on persian speedwell (R)
CCCOc1ccc(-c2sc3ccc(F)cc3c2-c2c(O)c(C)nn(C)c2=O)cc1 [2-032] | 5 (Herbicidal rate of 90% or more (almost completely withered))
Cc1nn(C)c(=O)c(-c2c(-c3ccc(OC(C)C)cc3)sc3ccc(F)cc23)c1O [2-034] | 5 (Herbicidal rate of 90% or more (almost completely withered))
